Assay results reported in patent EP1432683B9 (Recordati Ireland Limited, priority 2001, dated 2003).
“And” between values parts separate entries of the source, which are not always exact repeats. Equal entries are not always repeated. Structures can show the parent of a compound that is named as a salt. Where two headings read alike, the source gives them in different places. Marks after values point to notes of the source that are not given here.

How the values were obtained:
[1] = Solubility in water and in ethanol at room temperature (UV-Visible spectroscopy); format: physicochemical
From the text: The molar absorptivity had been previously determined in acetonitrile. The same molar absorptivity was considered for the determination in water and in ethanol. Solubility in water certainly depends on pH. The residual solid obtained by filtration of the suspension was immediately analyzed with Raman spectroscopy.

[2] = Solubility in mixtures of water-ethanol at 25°C and 40°C; format: physicochemical; conditions: at both 25°C and 40°C
[3] = Hygroscopicity by DVS analysis; format: physicochemical; conditions: 25°C, whole RH range tested
Method: The hygroscopicity of both crystalline Forms (I) and (II) was measured with DVS analysis by means of a water absorption analyzer (SURFACE MEASUREMENT SYSTEM, Marion, Buckinghamshire, UK) according to the following working conditions: […]

[4] = Bioavailability of crystalline Forms (I) and (II) in dogs; format: in vivo, Beagle dogs
Method: A study was carried out on six Beagle dogs to evaluate the bioavailability of crystalline Forms (I) and (II).
Blood samples were taken at given times and plasma concentrations of lercanidipine were determined with a stereoselective analytical method HPLC-MS/MS, according to the following working conditions;
Lercanidipine was extracted from dog plasma by means of a liquid-liquid extraction with a mixture of n-hexane and ethyl ether. The dry residue of the organic phase was taken up with a mixture of methanol and water and a liquid-phase chromatographic separation (LC) was carried out; the two enantiomers of lercanidipine were separated on a CHIROBIOTIC V column (Vancomycin) (particle size […], column size 150 x 4.6 mm (ASTEC, NJ, USA)) and were detected with a mass spectrometer (MS/MS) by using an electrospray technique.
The analytical method was validated in a concentration range between 0.1 and 20 ng/ml of plasma for both enantiomers. The method has shown to be specific with an accuracy of 15%. The average concentrations of lercanidipine in the tables represent the sum of both enantiomers.

[5] = Relative bioavailability of Form (I) and Form (II) in man; format: in vivo
Method: Blood samples were taken at 15 points from time 0 to 24 h post-dosing and plasma concentrations of lercanidipine were determined with a stereoselective analytical method HPLC-MS/MS.

[6] = Dog 1, oral 3 mg/kg, hydrochloride, 3 mg/kg
[7] = Dog 2 (not included in mean), oral 3 mg/kg, hydrochloride, 3 mg/kg
[8] = Dog 3, oral 3 mg/kg, hydrochloride, 3 mg/kg
[9] = Dog 4, oral 3 mg/kg, hydrochloride, 3 mg/kg
[10] = Dog 5, oral 3 mg/kg, hydrochloride, 3 mg/kg
[11] = Mean (n=5, Dog 2 not included), oral 3 mg/kg, hydrochloride, 3 mg/kg

For `COC(=O)C1=C(C)NC(C)=C(C(=O)OC(C)(C)CN(C)CCC(c2ccccc2)c2ccccc2)C1c1cccc([N+](=O)[O-])c1` (single isomer, unassigned) [Form (II), lercanidipine hydrochloride], the “Solubility compared with Form (I)” value [1] was “less soluble than Form (I) in both solvents”, the “water concentration at which the maximum solubility is reached” value [2] was 20% and the mass variation [3] was < 0.05%. The AUC0-t [4, 6] was 54.59 ng/h/mL, the Cmax [4, 6] was 18.46 ng/mL and the Tmax [4, 6] was 3.00 h. It also gave an AUC0-t [4, 7] of 119.77 ng/h/mL, a Cmax [4, 7] of 52.19 ng/mL and a Tmax [4, 7] of 1.50 h. It also gave an AUC0-t [4, 8] of 75.62 ng/h/mL, a Tmax [4, 8] of 1.50 h and an AUC0-t [4, 9] of 173.82 ng/h/mL. The Tmax [4, 9] was 4.00 h, the AUC0-t [4, 10] was 142.34 ng/h/mL and the Cmax [4, 10] was 55.38 ng/mL. It also gave a Tmax [4, 10] of 2.00 h, a Tmax ([4]; Dog 6, oral 3 mg/kg) of 6.00 h and an AUC0-t ([4]; Dog 6, oral 3 mg/kg, hydrochloride, 3 mg/kg) of 61.91 ng/h/mL. For the same molecule, the AUC0-t [4, 11] was 104.68 ng/h/mL, the Cmax [4, 11] was 36.17 ng/mL and the Tmax [4, 11] was 3.00 h. The “concentration in plasma of lercanidipine (S+R)” value (from here on “concentration in plasma”) ([4]; Time 0 h, Dog 1, oral 3 mg/kg) was 0.00 ng/mL, the “concentration in plasma” value ([4]; Time 0 h, Dog 2 (not included in mean), oral 3 mg/kg) was 0.00 ng/mL and the “concentration in plasma” value ([4]; Time 0 h, Dog 3, oral 3 mg/kg) was 0.00 ng/mL. For the same molecule, the “concentration in plasma” value ([4]; Time 0 h, Dog 4, oral 3 mg/kg) was 0.00 ng/mL, the “concentration in plasma” value ([4]; Time 0 h, Dog 5, oral 3 mg/kg) was 0.00 ng/mL and the “concentration in plasma” value ([4]; Time 0 h, Dog 6, oral 3 mg/kg) was 0.00 ng/mL. For the same molecule, the “concentration in plasma” value ([4]; Time 0 h, Mean (Dog 2 not included), oral 3 mg/kg) was 0.00 ng/mL, the “concentration in plasma” value ([4]; Time 0.5 h, Dog 1, oral 3 mg/kg, hydrochloride, 3 mg/kg) was 0.00 ng/mL and the “concentration in plasma” value ([4]; Time 0.5 h, Dog 2 (not included in mean), oral 3 mg/kg, hydrochloride, 3 mg/kg, 30 min) was 22.67 ng/mL. The “concentration in plasma” value ([4]; Time 0.5 h, Dog 4, oral 3 mg/kg) was 0.00 ng/mL, the “concentration in plasma” value ([4]; Time 0.5 h, Dog 5, oral 3 mg/kg) was 0.00 ng/mL and the “concentration in plasma” value ([4]; Time 0.5 h, Dog 6, oral 3 mg/kg) was 0.00 ng/mL. For the same molecule, the “concentration in plasma” value ([4]; Time 1 h, Dog 1, oral 3 mg/kg, hydrochloride, 3 mg/kg) was 0.00 ng/mL, the “concentration in plasma” value ([4]; Time 1 h, Dog 2 (not included in mean), oral 3 mg/kg, hydrochloride, 3 mg/kg, 60 min) was 52.13 ng/mL and the “concentration in plasma” value ([4]; Time 1 h, Dog 6, oral 3 mg/kg) was 0.00 ng/mL. The “concentration in plasma” value ([4]; Time 1 h, Mean (Dog 2 not included), oral 3 mg/kg, hydrochloride, 3 mg/kg, 60 min) was 5.08 ng/mL, the “concentration in plasma” value ([4]; Time 1.5 h, Dog 1, oral 3 mg/kg, hydrochloride, 3 mg/kg, 90 min) was 0.23 ng/mL and the “concentration in plasma” value ([4]; Time 1.5 h, Dog 2 (not included in mean), oral 3 mg/kg, hydrochloride, 3 mg/kg, 90 min) was 52.19 ng/mL. The “concentration in plasma” value ([4]; Time 1.5 h, Dog 3, oral 3 mg/kg, hydrochloride, 3 mg/kg, 90 min) was 19.78 ng/mL, the “concentration in plasma” value ([4]; Time 1.5 h, Dog 5, oral 3 mg/kg, hydrochloride, 3 mg/kg, 90 min) was 32.69 ng/mL and the “concentration in plasma” value ([4]; Time 1.5 h, Mean (Dog 2 not included), oral 3 mg/kg, hydrochloride, 3 mg/kg, 90 min) was 18.32 ng/mL. For the same molecule, the “concentration in plasma” value ([4]; Time 2 h, Dog 2 (not included in mean), oral 3 mg/kg, hydrochloride, 3 mg/kg, 120 min) was 35.45 ng/mL, the “concentration in plasma” value ([4]; Time 2 h, Dog 3, oral 3 mg/kg, hydrochloride, 3 mg/kg, 120 min) was 17.81 ng/mL and the “concentration in plasma” value ([4]; Time 2 h, Dog 4, oral 3 mg/kg, hydrochloride, 3 mg/kg, 120 min) was 38.10 ng/mL. For the same molecule, the “concentration in plasma” value ([4]; Time 2 h, Dog 5, oral 3 mg/kg, hydrochloride, 3 mg/kg, 120 min) was 55.38 ng/mL, the “concentration in plasma” value ([4]; Time 2 h, Dog 6, oral 3 mg/kg, hydrochloride, 3 mg/kg, 120 min) was 10.19 ng/mL and the “concentration in plasma” value ([4]; Time 2 h, Mean (Dog 2 not included), oral 3 mg/kg, hydrochloride, 3 mg/kg, 120 min) was 25.82 ng/mL. The “concentration in plasma” value ([4]; Time 3 h, Dog 1, oral 3 mg/kg, hydrochloride, 3 mg/kg, 180 min) was 18.46 ng/mL, the “concentration in plasma” value ([4]; Time 3 h, Dog 2 (not included in mean), oral 3 mg/kg, hydrochloride, 3 mg/kg, 180 min) was 17.43 ng/mL and the “concentration in plasma” value ([4]; Time 3 h, Dog 3, oral 3 mg/kg, hydrochloride, 3 mg/kg, 180 min) was 15.80 ng/mL. The “concentration in plasma” value ([4]; Time 3 h, Mean (Dog 2 not included), oral 3 mg/kg, hydrochloride, 3 mg/kg, 180 min) was 23.46 ng/mL, the “concentration in plasma” value ([4]; Time 4 h, Dog 1, oral 3 mg/kg, hydrochloride, 3 mg/kg, 240 min) was 14.83 ng/mL and the “concentration in plasma” value ([4]; Time 4 h, Dog 2 (not included in mean), oral 3 mg/kg, hydrochloride, 3 mg/kg, 240 min) was 5.17 ng/mL. The “concentration in plasma” value ([4]; Time 4 h, Dog 4, oral 3 mg/kg, hydrochloride, 3 mg/kg, 240 min) was 52.64 ng/mL, the “concentration in plasma” value ([4]; Time 4 h, Dog 6, oral 3 mg/kg, hydrochloride, 3 mg/kg, 240 min) was 13.24 ng/mL and the “concentration in plasma” value ([4]; Time 4 h, Mean (Dog 2 not included), oral 3 mg/kg, hydrochloride, 3 mg/kg, 240 min) was 23.69 ng/mL. For the same molecule, the “concentration in plasma” value ([4]; Time 6 h (last sampling time), Mean (Dog 2 not included), oral 3 mg/kg, hydrochloride, 3 mg/kg, 360 min) was 10.9 ± 6.8 ng/mL and 10.89 ng/mL, the “concentration in plasma” value ([4]; Time 6 h, Dog 1, oral 3 mg/kg, hydrochloride, 3 mg/kg, 360 min) was 8.05 ng/mL and the “concentration in plasma” value ([4]; Time 6 h, Dog 2 (not included in mean), oral 3 mg/kg, hydrochloride, 3 mg/kg, 360 min) was 4.50 ng/mL. The “concentration in plasma” value ([4]; Time 6 h, Dog 3, oral 3 mg/kg, hydrochloride, 3 mg/kg, 360 min) was 3.62 ng/mL, the “concentration in plasma” value ([4]; Time 6 h, Dog 4, oral 3 mg/kg, hydrochloride, 3 mg/kg, 360 min) was 17.46 ng/mL and the “concentration in plasma” value ([4]; Time 6 h, Dog 5, oral 3 mg/kg, hydrochloride, 3 mg/kg, 360 min) was 6.76 ng/mL. For the same molecule, the “concentration in plasma” value ([4]; Time 6 h, Dog 6, oral 3 mg/kg, hydrochloride, 3 mg/kg, 360 min) was 18.56 ng/mL, the Cmax ([4]; dog, plasma, po, 3 mg/kg, Dog 3, read-out: Cmax) was 19.8 ng/mL and the Cmax ([4]; dog, plasma, po, 3 mg/kg, Dog 4, read-out: Cmax) was 52.6 ng/mL. For the same molecule, the Cmax ([4]; dog, plasma, po, 3 mg/kg, Dog 6, read-out: Cmax) was 18.6 ng/mL, the concentration at 0.5 h ([4]; dog, plasma, po, 3 mg/kg, Time 0.5 h, Dog 3, read-out: concentration in plasma of lercanidipine (S+R)) was 6.99 ng/mL and the concentration at 0.5 h ([4]; dog, plasma, po, 3 mg/kg, Time 0.5 h, Mean (Dog 2 not included), read-out: concentration in plasma of lercanidipine (S+R)) was 1.4 ng/mL. For the same molecule, the concentration at 1 h ([4]; dog, plasma, po, 3 mg/kg, Time 1 h, Dog 3, read-out: concentration in plasma of lercanidipine (S+R)) was 16.6 ng/mL, the concentration at 1 h ([4]; dog, plasma, po, 3 mg/kg, Time 1 h, Dog 4, read-out: concentration in plasma of lercanidipine (S+R)) was 5.5 ng/mL and the concentration at 1 h ([4]; dog, plasma, po, 3 mg/kg, Time 1 h, Dog 5, read-out: concentration in plasma of lercanidipine (S+R)) was 3.28 ng/mL. It also gave a concentration at 1.5 h ([4]; dog, plasma, po, 3 mg/kg, Time 1.5 h, Dog 4, read-out: concentration in plasma of lercanidipine (S+R)) of 35.4 ng/mL, a concentration at 1.5 h ([4]; dog, plasma, po, 3 mg/kg, Time 1.5 h, Dog 6, read-out: concentration in plasma of lercanidipine (S+R)) of 3.49 ng/mL and a concentration at 2 h ([4]; dog, plasma, po, 3 mg/kg, Time 2 h, Dog 1, read-out: concentration in plasma of lercanidipine (S+R)) of 7.63 ng/mL. For the same molecule, the concentration at 3 h ([4]; dog, plasma, po, 3 mg/kg, Time 3 h, Dog 4, read-out: concentration in plasma of lercanidipine (S+R)) was 28.4 ng/mL, the concentration at 3 h ([4]; dog, plasma, po, 3 mg/kg, Time 3 h, Dog 5, read-out: concentration in plasma of lercanidipine (S+R)) was 40.6 ng/mL and the concentration at 4 h ([4]; dog, plasma, po, 3 mg/kg, Time 4 h, Dog 3, read-out: concentration in plasma of lercanidipine (S+R)) was 14.1 ng/mL. The concentration at 4 h ([4]; dog, plasma, po, 3 mg/kg, Time 4 h, Dog 5, read-out: concentration in plasma of lercanidipine (S+R)) was 23.7 ng/mL, the “bioequivalence to Form I” value ([5]; 10 mg tablet) was “not bioequivalent to Form I” and the “AUC0-t” value ([5]; 10 mg tablet, single dose, geom. least square mean, 1440 min, hydrochloride) was 10.36 ng·h/mL. The Cmax ([5]; 10 mg tablet, single dose, geom. least square mean, hydrochloride) was 3.22 ng/mL, the Tmax ([5]; 10 mg tablet, single dose, median, hydrochloride) was 2.50* h and the “tmax Point Estimate (T/R), median difference” value ([5]; Test = Form (II) tablet, Reference = Form (I) tablet (Zanedip)) was 0.75** h.
